# Where two headings read alike, the source gives them in different places.
# Key:
# muscarinic receptor M1 = biological target: T1, muscarinic receptor M1 (Homo sapiens, UniProt P11229); experiment: Muscarinic receptor subtype M1 binding assay, radioligand displacement
# T1 construct: expressed in transfected cells
# T1 sequence (P11229 1-460): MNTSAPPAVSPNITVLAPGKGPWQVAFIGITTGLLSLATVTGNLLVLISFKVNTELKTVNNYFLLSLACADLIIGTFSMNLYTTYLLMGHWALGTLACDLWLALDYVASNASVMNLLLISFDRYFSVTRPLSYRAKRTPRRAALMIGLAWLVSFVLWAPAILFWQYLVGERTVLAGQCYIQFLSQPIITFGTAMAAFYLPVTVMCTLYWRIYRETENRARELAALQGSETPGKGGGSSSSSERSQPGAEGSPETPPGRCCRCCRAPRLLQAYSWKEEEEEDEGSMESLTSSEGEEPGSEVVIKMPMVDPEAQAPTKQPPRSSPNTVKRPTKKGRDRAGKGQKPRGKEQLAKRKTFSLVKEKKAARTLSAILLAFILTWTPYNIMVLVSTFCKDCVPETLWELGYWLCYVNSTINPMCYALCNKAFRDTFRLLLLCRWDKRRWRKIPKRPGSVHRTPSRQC
# Protocol: (§1) Muscarinic receptor subtype M1-M5 binding assays were carried out. Briefly, [3]H-methylscopolamine was allowed to bind to membranes from various recombinant mammalian cell lines, each with an over-expression of a particular receptor subtype.
# (§2) Muscarinic receptor subtype M1-M5 binding assays were performed.
# muscarinic receptor M4 = biological target: T2, muscarinic receptor M4 (Homo sapiens, UniProt P08173); experiment: Muscarinic receptor subtype M4 binding assay, radioligand displacement
# T2 construct: expressed in transfected cells
# T2 sequence (P08173 1-479): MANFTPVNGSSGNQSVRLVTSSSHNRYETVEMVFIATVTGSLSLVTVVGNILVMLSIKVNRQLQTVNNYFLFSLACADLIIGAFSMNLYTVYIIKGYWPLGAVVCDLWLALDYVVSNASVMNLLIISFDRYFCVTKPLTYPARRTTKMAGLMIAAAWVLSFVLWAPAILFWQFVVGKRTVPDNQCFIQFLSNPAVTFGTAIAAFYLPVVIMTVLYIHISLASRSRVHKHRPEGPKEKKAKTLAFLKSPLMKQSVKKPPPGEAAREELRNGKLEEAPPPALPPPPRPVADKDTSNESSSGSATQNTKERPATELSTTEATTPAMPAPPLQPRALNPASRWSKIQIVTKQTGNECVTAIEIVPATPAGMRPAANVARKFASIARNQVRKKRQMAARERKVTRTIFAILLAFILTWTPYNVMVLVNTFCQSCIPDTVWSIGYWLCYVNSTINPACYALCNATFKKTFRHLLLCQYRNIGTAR
# Protocol: as §1, §2
# [1] = Pharmacokinetics of inhaled quaternary ammonium salts, plasma levels; assay type: in vivo, Balb/c mice
# Protocol: Blood samples were taken from the mice in example II via cardiac puncture under isoflurane anesthesia at 2.5 minutes, 10 minutes, 30 minutes, 2 hours, 4 hours, 8 hours, or 12 hours after aerosol drug treatment.
# The samples were collected in tubes containing EDTA and centrifuged at 12000×g for four minutes. Plasma was removed and stored at −70° C. until assay.
# Plasma samples were extracted via a liquid/liquid extraction technique. […] Chromatographically, the analyte and the internal standard were resolved on a Phenomenex Phenyl-Hexyl column using an isocratic elution. The limit of quantitation was 24 pg/ml.
# [2] = tested on: methacholine-induced bronchoconstriction in Balb/c mice; experiment: Bronchodilatory effect of inhaled compounds, Example II (10 min to 48 h)
# Protocol: Female BALB/c mice, weight range 19-22 g, were obtained from Charles River Laboratories (Kingston, N.C.). They received food and water ad libitum.
# Compounds for aerosol administration were prepared in sterile Dulbecco's Phosphate Buffered Saline.
# Mice were placed in a carousel-style, nose only, exposure chamber and allowed to inhale aerosols for five minutes, using an ICN SPAG-2 nebulizer.
# Bronchoconstriction was induced in mice by administration of an 80 mg/ml methacholine (MC) aerosol into the plethysmograph chambers for 5 minutes. […] The average enhanced pause (lung resistance) was determined. In order to determine the baseline, saline aerosol (without methacholine) was also separately administered to the mice.
# muscarinic receptor M3 = biological target: T3, muscarinic receptor M3 (Homo sapiens, UniProt P20309); experiment: Muscarinic receptor subtype M3 binding assay, radioligand displacement; conditions: Ki values, receptor subtype M3
# T3 construct: expressed in transfected cells
# T3 sequence (P20309 whole entry): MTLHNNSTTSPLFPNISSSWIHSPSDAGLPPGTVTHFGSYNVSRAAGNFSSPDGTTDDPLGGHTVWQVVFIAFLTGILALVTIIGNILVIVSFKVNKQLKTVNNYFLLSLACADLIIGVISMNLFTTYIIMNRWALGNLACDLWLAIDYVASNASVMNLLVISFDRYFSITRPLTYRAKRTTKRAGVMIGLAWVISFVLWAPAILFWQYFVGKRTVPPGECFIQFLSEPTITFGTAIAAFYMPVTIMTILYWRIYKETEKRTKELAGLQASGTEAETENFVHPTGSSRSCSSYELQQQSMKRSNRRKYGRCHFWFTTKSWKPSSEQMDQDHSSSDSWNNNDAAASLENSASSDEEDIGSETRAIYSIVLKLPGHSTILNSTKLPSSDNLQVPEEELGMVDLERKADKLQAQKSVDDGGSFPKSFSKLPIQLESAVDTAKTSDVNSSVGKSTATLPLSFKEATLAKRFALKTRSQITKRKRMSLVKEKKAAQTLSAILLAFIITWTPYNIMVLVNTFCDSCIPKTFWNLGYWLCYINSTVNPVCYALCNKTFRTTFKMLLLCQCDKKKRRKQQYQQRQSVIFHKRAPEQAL
# Protocol: as §1, §2
# muscarinic receptor M5 = biological target: T4, muscarinic receptor M5 (Homo sapiens, UniProt P08912); experiment: Muscarinic receptor subtype M5 binding assay, radioligand displacement; conditions: Ki values, receptor subtype M5, [3]H-methylscopolamine displacement, membranes from recombinant mammalian cell lines
# T4 construct: expressed in transfected cells
# T4 sequence (P08912 1-532): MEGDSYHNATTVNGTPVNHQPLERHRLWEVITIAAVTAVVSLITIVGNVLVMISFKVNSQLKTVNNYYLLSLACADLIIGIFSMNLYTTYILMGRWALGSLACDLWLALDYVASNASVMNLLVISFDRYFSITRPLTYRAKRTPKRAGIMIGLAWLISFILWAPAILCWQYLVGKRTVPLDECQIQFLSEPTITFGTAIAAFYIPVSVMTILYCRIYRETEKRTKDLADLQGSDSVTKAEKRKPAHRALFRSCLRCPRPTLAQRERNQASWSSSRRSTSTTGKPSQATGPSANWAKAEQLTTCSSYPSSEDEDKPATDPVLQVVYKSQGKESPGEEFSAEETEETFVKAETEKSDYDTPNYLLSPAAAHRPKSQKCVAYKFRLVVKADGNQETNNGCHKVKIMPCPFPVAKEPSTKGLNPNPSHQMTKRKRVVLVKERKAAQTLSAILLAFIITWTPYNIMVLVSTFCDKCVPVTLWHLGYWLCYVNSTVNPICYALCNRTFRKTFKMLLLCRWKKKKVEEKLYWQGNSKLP
# Protocol: as §1, §2
# muscarinic receptor M2 = biological target: T5, muscarinic receptor M2 (Homo sapiens, UniProt P08172); experiment: Muscarinic receptor subtype M2 binding assay, radioligand displacement
# T5 construct: expressed in transfected cells
# T5 sequence (P08172 1-466): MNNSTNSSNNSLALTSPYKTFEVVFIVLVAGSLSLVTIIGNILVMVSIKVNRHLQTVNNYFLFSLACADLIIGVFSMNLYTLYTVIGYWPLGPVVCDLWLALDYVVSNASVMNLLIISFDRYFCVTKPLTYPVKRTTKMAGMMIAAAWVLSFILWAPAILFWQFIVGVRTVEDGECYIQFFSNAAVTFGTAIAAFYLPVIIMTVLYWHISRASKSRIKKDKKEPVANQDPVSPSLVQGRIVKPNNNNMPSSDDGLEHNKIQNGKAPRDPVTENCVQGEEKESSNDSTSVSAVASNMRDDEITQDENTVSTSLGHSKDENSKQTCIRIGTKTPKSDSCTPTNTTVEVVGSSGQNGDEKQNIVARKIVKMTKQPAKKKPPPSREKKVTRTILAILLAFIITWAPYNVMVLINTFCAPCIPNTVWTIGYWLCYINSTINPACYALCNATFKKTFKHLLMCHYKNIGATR
# Protocol: as §1, §2
# [3] = Balb/c, mouse, plasma, inhaled, inhalation of 0.072 mg/ml, read-out: Plasma concentration ± std dev
# [4] = Balb/c, mouse, plasma, inhaled, inhalation of 0.144 mg/ml, read-out: Plasma concentration ± std dev
# [5] = Balb/c, mouse, plasma, inhaled, inhalation of 1.44 mg/ml, read-out: Plasma concentration ± std dev
compound,measurement,setting,value
Cc1ccc(O)c([C@H](CC[N+](C)(C(C)C)C(C)C)c2ccccc2)c1.[I-] [Example 2],Ki,muscarinic receptor M1,0.33 nM
same,Ki,muscarinic receptor M4,0.39 nM
same,concentration at 2.5 min,[1]; [3],0.136 ± 0.038 ng/mL
same,concentration at 10 min,[1]; [3],0.09 ± 0.001 ng/mL
same,concentration at 30 min,[1]; [3],0.081 ± 0.008 ng/mL
same,concentration at 2 h,[1]; [3],0.041 ± 0.006 ng/mL
same,concentration at 4 h,[1]; [3],0.014 ± 0.001 ng/mL
same,concentration at 2.5 min,[1]; [4],0.264 ± 0.021 ng/mL
same,concentration at 10 min,[1]; [4],0.162 ± 0.011 ng/mL
same,concentration at 30 min,[1]; [4],0.112 ± 0.01 ng/mL
same,concentration at 2 h,[1]; [4],0.055 ± 0.007 ng/mL
same,concentration at 4 h,[1]; [4],0.04 ± 0.003 ng/mL
same,concentration at 8 h,[1]; [4],0.012 ± 0.001 ng/mL
same,concentration at 2.5 min,[1]; [5],2.68 ± 0.389 ng/mL
same,concentration at 10 min,[1]; [5],1.4 ± 0.163 ng/mL
same,concentration at 30 min,[1]; [5],1.12 ± 0.042 ng/mL
same,concentration at 2 h,[1]; [5],0.245 ± 0.003 ng/mL
same,concentration at 4 h,[1]; [5],0.157 ± 0.002 ng/mL
same,concentration at 8 h,[1]; [5],0.08 ± 0.002 ng/mL
same,concentration at 12 h,"[1]; Balb/c, mouse, plasma, inhaled, inhalation of 1.44 mg/ml, 12 h, read-out: Plasma concentration ± std dev",0.042 ± 0.002 ng/mL
same,systemic (plasma) exposure,[1]; after aerosol inhalation of 0.072-1.44 mg/ml,very low
same,"prevention of methacholine-induced bronchoconstriction, time following administration","[2]; inhalation of aerosol from 0.072 mg/ml solution, FIG. 3",8 h
same,"prevention of methacholine-induced bronchoconstriction, time following administration","[2]; inhalation of aerosol from 0.144 mg/ml solution, FIG. 2",24 h
same,"complete block of methacholine-induced bronchoconstriction, time following administration","[2]; inhalation of aerosol from 1.44 mg/ml solution, FIG. 1",36 h
same,Ki,muscarinic receptor M3,0.2 nM
same,Ki,muscarinic receptor M5,0.25 nM
same,Ki,muscarinic receptor M2,0.45 nM

# Source: US6890920B2, “Quaternary ammonium compounds” (Pharmacia & Upjohn Company, priority 1992, dated 2005)
